Reference: US12214076B2, “Drug delivery vehicles for atherosclerosis nanomedicine” (Northwestern University, priority 2019, dated 2025)
Ends that are not written are not given here. Peptide text beside a SMILES is read from it. * marks the point of attachment. Palmitoyl = CCCCCCCCCCCCCCCC(=O)*

Tests used:
LDLR KO mice [1] = assay: Targeting of atherosclerosis by IV injected ApoA1 PA nanofibers (Example 3); format: in vivo, mouse; details: within 24 hours after injection, confocal, Alexa Fluor 546
Procedure: (§1) Mouse model of atherosclerosis: To study atherosclerosis, the LDLR KO mouse was used. LDLR KO mice are fed a high fat “western” diet (Teklad TD.88137) starting at 4 weeks of age. This diet consists of 20% fat, 0.2% cholesterol, and 34% high sucrose. LDLR KO mice fed this diet typically develop severe hypercholesterolemia (>800 mg/dL) and hypertriglyceridemia (>300 mg/dL) after only 2 weeks. By 12 weeks on the high fat diet, atherosclerotic lesions are detected in the aortic root and aortic arch on cryosections stained with Oil Red O (Sigma). Atherosclerosis was quantified in the aortic root as a percentage of the aortic root by taking the atherosclerotic area divided by the total aortic root area. Measurements were made with ImageJ software. All protocols for the animal model and procedures in this manuscript were approved by Northwestern University's Institutional Animal Care and Use Committee.
Injection of PA nanofibers: PA nanofibers were dissolved at 2-4 mg/mL concentration in room temperature phosphate buffered saline (PBS). After 14 weeks on the high fat diet, mice received intravenous injections of PA nanofiber dissolved in PBS (dorsal penile vein in males, retro-orbital injection in females) using a 31 G hypodermic insulin needle on a 0.3 mL syringe under sterile conditions and magnification (NIKON SMZ 645 Zoom Stereomicroscope). Mice were briefly anesthetized for injection with inhaled isoflurane. Mice were monitored and allowed to recover from anesthesia in a heated oxygen chamber.
Dose and concentration study: To determine the optimum concentration for targeting efficacy and safety, LDLR KO mice fed the high fat diet for 14 weeks were injected with PA nanofiber at concentrations of 1 mg/mL, 2 mg/mL, and 4 mg/mL at 8 mg/kg in PBS. Similarly, to determine the optimum dose for targeting efficacy and safety, LDLR KO mice fed the high fat diet for 14 weeks were injected at PA nanofiber doses of 8 mg/kg, 6 mg/kg, 4 mg/kg, 3.3 mg/kg, and 1.7 mg/kg at 2 mg/mL in PBS. Safety, optimum dose, and concentration for targeting was assessed by survival of the animal and fluorescent pixel quantification in the aortic root, liver, lungs, kidneys, and spleen.
(§2) Tissue processing and imaging: Mice were sacrificed and euthanized under inhaled isoflurane anesthesia by diaphragm disruption and exsanguination. Phlebotomy was performed through direct right ventricular cardiac puncture using a 1 mL syringe and 25 G needle. Perfusion was performed through left ventricular cardiac puncture with 10 mL PBS and 10 mL 10% sucrose solution. The lungs, liver, spleen, kidney, aortic root, aortic arch, and descending aorta were harvested and stored in 10% sucrose for 20 minutes. Organs and vessels were then flash-frozen in Optimal Cutting Temperature embedding medium 4583 (Tissue-Tek®) with liquid nitrogen. Frozen specimens were stored at −80° C. and cryosectioned at […]. Confocal microscopy was performed on a Nikon AIR microscope. Two sets of images were acquired with a 10× Plan Fluor NA 0.3 objective. PAs were identified through quantification of the Alexa Fluor® 546 conjugated dye with 561 nm excitation and a 600/50 nm emission filter.
Images were acquired with spectral detection and spectrally unmixed to accurately separate green autofluorescence from the red Alexa Fluor® 546 signal. Brightfield and fluorescent microscopy were performed using a Zeiss Axio Imager.A2 microscope with AxioVision software (release 4.8.2, 06-2010). All confocal and fluorescent sections were mounted with ProGold Diamond mounting media (Sigma). Slides were stained with Oil Red O to image and quantify atherosclerosis under brightfield microscopy. The elastic laminae were identified using the green fluorescent protein (GFP) filter with an exposure time of 3500 ms under 5× magnification. Nanofibers were identified in the aortic root by presence of Alexa Fluor® 546 on the Cy3 filter under 5-10× magnification, and in the internal organs under 20× magnification. […]

[2] = read-out: dissociation constant for PEIPC; cited from earlier work
[3] = TEM characterization of PA nanofibers for diameter and length (Example 3); format: physicochemical
Procedure: Samples at 1 mM in PBS were prepared for TEM by plating on copper supports covered with thin carbon foil 400-mesh that were treated with glow discharge. […] Due to the overlapping fibers, automated tools including FiberApp could not be used to analyze the nanofibers. Instead, the TEM images were analyzed manually for nanofiber diameter and length using ImageJ software. Cryogenic TEM of samples was also performed using a JEOL 1230 at 100 kV accelerating voltage and Gatan 831 CCD camera. […] Samples were prepared at 1 mM in PBS blotted once for 3 seconds before plunging into liquid ethane using a Vitrobot Mark III (FEI) vitrification robot.

[4] = ROS-Ac2-26 PA cleavage assay with SIN-1; format: physicochemical
Procedure: ROS-Ac2-26 and MMP-Ac2-26 PA cleavage assays: To examine ROS-mediated cleavage, 3-morpholinosydnonimine hydrochloride (SIN-1, Sigma-Aldrich or Abcam) was used. ROS-Ac2-26 PAs were reconstituted to 0.5 mM in phosphate buffer and treated with 100 μM SIN-1 for 24 hours at 37° C. For MMP2/9-mediated cleavage, human recombinant MMP2 (R&D systems, carrier-free) was used, activated with freshly prepared 1 mMp-aminophenylmercuric acetate (APMA, Sigma-Aldrich) for one hour at 37° C. The APMA disrupts the cysteine-zinc bond in MMP2 responsible for enzyme latency by liberation of the sulfhydryl group. 10% MMP-Ac2-26 PA co-assemblies were prepared at 0.5 mM in a cleavage buffer containing 50 mM tricine, 50 mM NaCl, 50 μM ZnCl2, and 10 mM CaCl2) at pH 7.4, and treated with 40 nM human recombinant MMP2 for 24 hours at 37° C. At the end of each time point, the samples were stored at −20° C., effectively stopping the cleavage reactions. Samples were analyzed at room temperature, 0.04-0.3 mg/mL with 0.1% NH4OH using a ThermoFisher Q Exactive HIF-X (ThermoFisher, Bremen, Germany) mass spectrometer coupled with a Waters Acquity H-class liquid chromatograph system. […] All measurements were recorded at a resolution setting of 120,000. […] Injection volume for all samples was […]. Data was analyzed on Xcalibur (ThermoFisher, Breman, Germany).

LDLR KO mice [5] = assay: Atherosclerosis treatment study; format: in vivo, mouse
Procedure: as §1
(§3) Blood samples were collected at the end of the treatment study for toxicology analysis. Mice were euthanized three days after their 16th treatment.
as §2
Images were acquired with spectral detection and spectrally unmixed to accurately separate green autofluorescence from the red Alexa Fluor® 546 signal. Brightfield and fluorescent microscopy were performed using a Zeiss Axio Imager.A2 microscope with AxioVision software (release 4.8.2, 06-2010). All confocal and fluorescent sections were mounted with ProGold Diamond mounting media (Sigma). Slides were stained with Oil Red O to image and quantify atherosclerosis under brightfield microscopy. The elastic laminae were identified using the green fluorescent protein (GFP) filter with an exposure time of 3500 ms under 5× magnification. Nanofibers were identified in the aortic root by presence of Alexa Fluor® 546 on the Cy3 filter under 5-10× magnification, and in the internal organs under 20× magnification. Fluorescent pixel quantification in the aortic root and within organs was performed with ImageJ software.
(§4) Statistics: The effect of treatments and sex on atherosclerosis progression in mice was analyzed using one- or two-factor analysis of variance (ANOVA) followed by a post-hoc student's t-test. The toxicological effects of treatments were also analyzed using two-factor ANOVA and a post-hoc student's t-test. Toxicological effects of treatments on liver proteins AST, ALT, and ALP were further analyzed using ordinal logistic regression models of likelihood ratio tests, followed by a post-hoc Wald test

[6] = Treatment study serum chemistry (toxicology analysis); format: in vivo, mouse; details: mouse, in vivo
Procedure: as §3, §2, §4

[7] = system: atherosclerotic LDLR KO mice; assay: In vivo proof of concept: PA nanofiber localization in aortic root; parameters: species or system mouse; details: 24 h after intravenous injection, high fat diet 14 weeks, 6 mg kg-1 PA
Procedure: Mouse Model of Atherosclerosis and In Vivo Proof of Concept: LDLR-KO mice were fed a high fat “Western” diet (Teklad TD.88137) starting at 4 weeks of age. This diet consisted of 20% fat, 0.2% cholesterol, and 34% high sucrose. LDLR-KO mice fed this diet typically develop severe hypercholesterolemia (>800 mg/dL) and hypertriglyceridemia (>300 mg/dL) after only 2 weeks, and by 12 weeks on the high fat diet, atherosclerotic lesions are detected in the aortic root and aortic arch. After 14 weeks on the high fat diet, mice received intravenous injections of PA nanofibers dissolved in PBS (dorsal penile vein in males) under sterile conditions. Mice were briefly anesthetized for injection with inhaled isoflurane. After injection, mice were monitored and allowed to recover from anesthesia in a heated oxygen chamber. […] PA fluorescence was assessed with the HE CY3 filter (Zeiss filter #43) using excitation and emission wavelengths of 550-575 nm and 605-670 nm, respectively. Nuclear staining was performed with DAPI (4′,6-Diamidino-2-Phenylindole, Dilactate, ThermoFisher, Chicago, IL), and assessed with the DAPI filter (Zeiss filter #49) using excitation and emission wavelengths of 365-395 and 445-450 nm, respectively. Tissue autofluorescence was assessed with the green fluorescent protein filter (Zeiss filter #38) using excitation and emission wavelengths of 470-495 and 525-550 nm, respectively. […]

[8] = 30 measurements from three images
[9] = 30 measurements from three images, listed as Ser PA
[10] = 30 measurements from three images, listed as scrambled

For “DWFKAFYDKVAEKFKEAF (SEQ ID NO: 2)-NH2 (DWFKAFYDKVAEKFKEAF-NH2) [4F, 18 amino acid ApoA1 mimetic peptide]”, the “localization to areas of atherosclerosis” value (LDLR KO mice [1]) is listed as “localized to areas of atherosclerosis”, the Kd [2] is listed as 1e-05 µM and the nanofiber formation [3] is listed as “No nanofiber formation”.

For “native ApoA1: main protein component of high density lipoprotein (HDL) cholesterol”, the Kd [2] is listed as 50 µM.

With “C16-V2A2 (SEQ ID NO: 8)-E2-KP5K (SEQ ID NO: 10)-AMVSEFLKQAWFIENEEQEYVQTVK SEQ ID NO: 7-NH2 [ROS-Ac2-26 PA]” the “Ac2-26 release from PA” value ([4]; 100 μM SIN-1, 24 hours, 37° C.) was “released Ac2-26” and the “Ac2-26 cleavage without SIN-1 treatment” value ([4]; untreated) was “showed the presence of cleaved Ac2-26 peptide”.

For `CCCCCCCCCCCCCCCC(=O)N[C@H](C(=O)N[C@H](C(=O)N[C@@H](C)C(=O)N[C@@H](C)C(=O)N[C@@H](CCC(=O)O)C(=O)N[C@@H](CCC(=O)O)C(=O)N[C@@H](CS)C(=O)N[C@@H](CC(=O)O)C(=O)N[C@@H](Cc1c[nH]c2ccccc12)C(=O)N[C@@H](Cc1ccccc1)C(=O)N[C@@H](C)C(=O)N[C@@H](CCCCN)C(=O)N[C@@H](CC(=O)O)C(=O)N[C@@H](Cc1ccc(O)cc1)C(=O)N[C@@H](Cc1ccccc1)C(=O)N[C@@H](CCCCN)C(=O)N[C@@H](CCCCN)C(=O)N[C@@H](C)C(=O)N[C@@H](Cc1ccccc1)C(=O)N[C@H](C(=O)N[C@@H](CCC(=O)O)C(=O)N[C@@H](CCC(=O)O)C(=O)N[C@@H](Cc1ccccc1)C(=O)N[C@@H](C)C(=O)N[C@@H](CCCCN)C(N)=O)C(C)C)C(C)C)C(C)C` [Scr PA] (Palmitoyl-VVAAEECDWFAKDYFKKAFVEEFAK-NH2), the “localization to areas of atherosclerosis” value (LDLR KO mice [1]) was “did not localize to areas of atherosclerosis”, the “atherosclerosis progression in comparison to the PBS control” value (LDLR KO mice [5]; both sexes, twice per week over eight weeks, percent of atherosclerosis in the aortic root) was “significantly decreased” and the “reduction of atherosclerosis in females in comparison to males” value (LDLR KO mice [5]; mouse, in vivo) was “greater effects upon reducing atherosclerosis in females”. For the same molecule, the “AST levels in comparison to the PBS control” value [6] was “no significant differences”, the Creatine [6] was 0 U/L and the Sodium [6] was 138 mmol/L. The “Total Protein” value [6] was 5.4 g/dL, the “aspartate aminotransferase (AST) in the blood in comparison to PBS” value [6] was “significantly elevated levels of aspartate aminotransferase (AST)” and the “Diameter (nm) Median” value [3, 8] was 14.2 nm. The “Length (nm) Average” value [3, 8] was 403.8 nm, the “Diameter (nm) Average” value [3, 9] was 13.8 nm and the “Length (nm) Median” value [3, 9] was 257.6 nm. The “Diameter (nm) Average” value [3, 10] was 13.8±2.4 nm, the “Length (nm) Median” value [3, 10] was 258 nm and the “localization of nanofibers to areas of atherosclerotic plaque in the aortic root” value [7] was “does not reveal evidence of nanofiber localization”.
